Several values for one entry are separate records, joined by “and”; a condition that tells them apart may be missing. Equal values may be shown once. Activity calls are given as the source filed them. How the calls were made is not given here.
Test system: not listed separately
Test: V. cholerae BH1578 lux luminescence induction, luxS cqsA deficient, confirmatory dose response (AID 686929)
Details: V. cholerae BH1578 lux luminescence induction, 6 h; at 35 µM (top of the series)

Structure (SMILES) | activation (light induction)
O=C(CC1CCCCC1)Nc1nnc(-c2ccc3c(c2)CCCC3)o1 | 0.065% (inactive)

Same assay, conditions: V. cholerae BH1578 lux luminescence induction, 6 h; at 80 µM (top of the series)

Structure (SMILES) | activation (light induction)
COC(=O)c1ccccc1Nc1cccc(Cl)c1 | 0.155% (inactive)
COc1ccc(-n2cnc(=O)c3ccccc32)cc1Cl | 0.017% (inactive)
O=c1ncn(-c2cccc(Cl)c2)c2cc(Cl)ccc12 | 0.003% (inactive)
O=C(Nc1nnc(-c2ccc3c(c2)OCCO3)o1)C1CCCC1 | 0.417% (inactive)
Cc1ccc(-n2cnc(=O)c3ccccc32)cc1Cl | 0.197% (inactive)
O=C(Nc1nnc(-c2ccc(Cl)cc2)o1)C1CCCCC1 | 0.013% (inactive)
O=c1ncn(-c2ccccc2)c2ccccc12 | 4.58% (inactive)
O=C(O)c1ccccc1Nc1cccc(Cl)c1 | 0.019% (inactive)
O=C(CSc1nc2ccccc2c(=O)[nH]1)NC1CCCCC1 | 0.005% (inactive)
O=C1C(=O)N(Cc2cccc(Cl)c2)c2ccccc21 | 0.001% (inactive)
NC(=O)c1ccccc1Nc1cccc(Cl)c1 | 0.018% (inactive)
CCc1nc(=O)c2ccccc2n1-c1cccc(Cl)c1 | 0.156% (inactive)
CCOC(=O)c1ccccc1Nc1cccc(Cl)c1 | 0.004% (inactive)
O=c1ncn(-c2cccc(Cl)c2)c2cccc(Cl)c12 | 0% (inactive)
O=c1ncn(-c2cccc(Cl)c2)c2ccc(Cl)cc12 | 3.29% (inactive)
COc1ccc2c(=O)ncn(-c3cccc(Cl)c3)c2c1 | 0.008% (inactive)
O=C1C(=O)N(Cc2ccccc2Cl)c2ccccc21 | 0.156% (inactive)
CCC(C)(C)C(=O)Nc1nnc(-c2ccc3c(c2)OCCO3)o1 | -0.001% (inactive)
O=C(CC1CCCCC1)Nc1nnc(-c2cccnc2)o1 | -0.004% (inactive)
COc1cccc(-n2cnc(=O)c3ccccc32)c1 | 0.108% (inactive)

Structure (SMILES) | activation (light induction)
O=C(Nc1nnc(-c2ccc3c(c2)CCCC3)o1)C1CCC1 | -0.004% (inactive)
O=c1[nH]cnc2ccccc12 | 0.008% (inactive)
O=C(CSc1nc2c(c(=O)[nH]1)CCCC2)NC1CCCCC1 | 0.02% (inactive)
O=c1nc(-c2ccccc2)n(-c2cccc(Cl)c2)c2ccccc12 | -0.004% (inactive)
O=c1ncn(Cc2ccc(Cl)cc2)c2ccccc12 | 0.035% (inactive)
Cc1ccc2cc3c(NC(=O)c4ccoc4)nn(C)c3nc2c1 | 0.289% (inactive)
Cn1cnc(=O)c2ccccc21 | 0.023% (inactive)
O=c1ncn(-c2ccc(Cl)cc2)c2ccccc12 | 0.027% (inactive)
O=c1ncn(-c2ccccc2Cl)c2ccccc12 | 0.05% (inactive)
NC(=O)c1ccccc1Nc1ccccc1 | 0.096% (inactive)
Cc1ccc2c(=O)ncn(-c3cccc(Cl)c3)c2c1 | 0.023% (inactive)
O=c1ncn(-c2cccc(F)c2)c2ccccc12 | 12.4% (inactive)
O=c1ncn(-c2ccc(Cl)c(Cl)c2)c2ccccc12 | 0.027% (inactive)
Cc1cccc(-n2cnc(=O)c3ccccc32)c1 | 6.74% (inactive)
O=c1nc(Cc2ccccc2)n(-c2cccc(Cl)c2)c2ccccc12 | 0.573% (inactive)
Cc1ccc2c(c1)c(=O)ncn2-c1cccc(Cl)c1 | 2.5% (inactive)
Cc1nc(=O)c2ccccc2n1-c1cccc(Cl)c1 | 9.66% (inactive)
O=c1ncn(-c2ccc(F)c(Cl)c2)c2ccccc12 | 1.31% (inactive)
O=C(Nc1nnc(-c2cccc(Cl)c2)o1)C1CCCCC1 | 0.048% (inactive)

Same assay, conditions: V. cholerae BH1578 lux luminescence induction, 6 h; at 100 µM (top of the series)

Structure (SMILES) | activation (light induction)
O=S(=O)(Nc1nnc(-c2ccc3c(c2)OCCO3)o1)c1ccc(Cl)cc1 | -0.005% (inactive)
c1ccc(CNc2nnc(-c3ccc4c(c3)OCCO4)o2)cc1 | 0.008% (inactive)
Cc1ccc2cc3c(NC(=O)c4ccccn4)nn(C)c3nc2c1 | -0.008% (inactive)
COc1ccc(-c2nnc(NC(C)=O)o2)cc1 | 0.061% (inactive)
CCn1nnnc1/N=C/c1ccc(N2CCCCC2)cc1 | 0.106% (inactive)
CC(C)c1ccc2cc3c(NC(=O)c4ccco4)nn(C)c3nc2c1 | 0.254% (inactive)
COc1cccc(-c2nnc(NC(=O)C3CCCCC3)o2)c1 | 0% (inactive)
O=C(Nc1nnc(-c2ccc3c(c2)OCCO3)o1)C1CC1 | 0.006% (inactive)
O=C(Nc1nnc(C2CCCC2)o1)C1CCCCC1 | -0.004% (inactive)
CC(C)(C)OC(=O)N1CCC(C(=O)Nc2nnc(-c3ccc4c(c3)OCCO4)o2)CC1 | 0.022% (inactive)
CN(C)/C=N/c1nnc(-c2ccc3c(c2)OCCO3)o1 | 0.03% (inactive)
O=C(Cc1ccc(-c2ccccc2)cc1)NC1COC1 | 1.9% (inactive)
C(=N\c1nnc(-c2ccc3c(c2)OCCO3)o1)/c1ccccc1 | 0.009% (inactive)
COc1ccc(S(=O)(=O)Nc2nnc(-c3ccc4c(c3)OCCO4)o2)cc1 | 0.008% (inactive)
Cc1ccc2cc3c(NC(=O)Cc4ccco4)nn(C)c3nc2c1 | 0.2% (inactive)
O=C(Nc1nnc(-c2ccc3c(c2)OCCO3)o1)C(F)(F)c1ccccc1 | -0.005% (inactive)

Structure (SMILES) | activation (light induction)
O=C(Nc1nnc(-c2cccnc2)o1)C1CCC1 | 0% (inactive)
O=C(Cc1ccc(-c2ccccc2)cc1)N[C@@H]1CCOC1 (racemic) | 12.2% (inactive)
Cn1ccc(NC(=O)c2ccco2)n1 | 0.065% (inactive)
CCn1nnnc1NC(C)c1ccc(N2CCCC2)cc1 (configuration not stated) | 11.2% (inactive)
Cn1nc(NC(=O)c2ccco2)c2cc3ccc(C(C)(C)C)cc3nc21 | -0.001% (inactive)
O=C(Nc1nnc(-c2ccccc2Cl)o1)C1CCCCC1 | 0.002% (inactive)
CCn1nnnc1N | 0.004% (inactive)
O=C(Nc1nnc(-c2ccc3c(c2)OCCO3)o1)C1CCC1 | 0.011% (inactive)
O=C(Nc1nnc(-c2cccnc2)o1)C1CCCCC1 | 3.01% (inactive)
Cn1nc(NC(=O)c2ccco2)c2ccccc21 | 0.203% (inactive)
O=C(Cc1ccc(-c2ccccc2)cc1)NC1CNC1 | 0.02% (inactive)
CN1CCC(C(=O)Nc2nnc(-c3ccc4c(c3)OCCO4)o2)CC1 | 0.038% (inactive)
O=C(Nc1nnc(-c2ccncc2)o1)C1CCC1 | 0.061% (inactive)
Cc1ccc2cc3c(NC(=O)c4ccc(C)o4)nn(C)c3nc2c1 | -0.007% (inactive)
Cc1ccc2cc3c(NC(=O)c4cc5ccccc5o4)nn(C)c3nc2c1 | -0.011% (inactive)

Test system: V. cholerae BH1578 lux luminescence induction, 6 h
Test: as above
Details: not given

Structure (SMILES) | AC40
COc1ccccc1-c1nnc(NC(=O)C2CCCCC2)o1 | > 100 µM (inactive)
CCCCCCCCCC(=O)C(O)CC (configuration not stated) | 3.81 µM
O=C(Nc1nnc(-c2ccc3c(c2)OCCO3)o1)C1CCCCCC1 | 11.8 µM
Cc1cc(F)cc2nc3c(cc12)c(NC(=O)c1ccco1)nn3C | 83.3 µM
Cc1cc2nc3c(cc2cc1F)c(NC(=O)c1ccco1)nn3C | 25.3 µM
Cn1nc(NC(=O)c2ccco2)c2cccnc21 | 48.8 µM
Cn1nc(NC(=O)c2ccco2)c2cc3ccccc3nc21 | 6.9 µM
Cc1cc(F)c2cc3c(NC(=O)c4ccco4)nn(C)c3nc2c1 | > 100 µM (inactive)
CCn1nnnc1NCc1ccc(C(C)C)cc1 | 0.923 µM
CC(C)(C)COC(=O)CSc1n[nH]c(=O)[nH]c1=O | 8.89 µM
COc1ccc(-c2nnc(NC(=O)C3CCCCC3)o2)cc1 | > 100 µM (inactive)
COc1ccc2cc3c(NC(=O)c4ccco4)nn(C)c3nc2c1 | 2.97 µM
O=C(Nc1nnc(-c2ccc3c(c2)OCCO3)o1)C1CCCCC1 | 5.45 µM and 1.91 µM
CCCCCCCCCC(=O)[C@H](O)CC (racemic) | 11.5 µM
O=c1ncn(-c2cc(Cl)cc(Cl)c2)c2ccccc12 | > 80 µM (inactive)
Cc1ccc2cc3c(NC(=O)C4CCCC4)nn(C)c3nc2c1 | 73.5 µM
O=C(Cc1ccc(-c2ccccc2)cc1)NC1CCC1 | 1.74 µM
Cc1ccc2cc3c(NC(=O)c4cccs4)nn(C)c3nc2c1 | > 80 µM (inactive)
Cc1cc2cc3c(NC(=O)c4ccco4)nn(C)c3nc2cc1C | 45.7 µM
Cc1ccc2cc3c(NC(=O)c4ccco4)nn(C)c3nc2c1 | 10.4 µM and 54.6 µM
CCc1ccc2cc3c(NC(=O)c4ccco4)nn(C)c3nc2c1 | 52.1 µM

From PubChem BioAssay AID686929 (Broad Institute, 2013)
